Structures can show the parent of a compound that is named as a salt. Where two headings read alike, the source gives them in different places.
Columns and labels:
Assay type in all cases: cell-based
SUDHL5 cells [1] = assay: Induction of cytotoxicity in SUDHL5 cells (Assay 6); settings: 5 h, CellTiter-Glo, read-out: Cytotox SUDHL5 IC50 (median)
Procedure: (§1) Assay 6 Induction of Cytotoxicity Upon Treatment of Cells with Selected Compounds
(§2) In principle, compounds that induce apoptosis will concomitantly induce cell cytotoxicity. Therefore, cytotoxicity assays were run in parallel in SUDHL5 and SUDHL10 cells.
(§3) As a control, medium without cells was also added to the plate. Cells were incubated in a humidified incubator at 37° C. overnight. […] Rim wells were excluded. The cells were incubated for 5 h hours in a humidified incubator at 37° C. After this incubation, 30 μL of CellTiter-Glo® Luminescent Cell Viability reagent (Promega, G7573) was added to each well using the Multidrop Combi Reagent Dispenser, followed by 15 min incubation on a shaker at room temperature. Finally, luminescence was read at 0.1 ms, with a gain of 3000 using the PHERAstar FS microplate reader (BMG Labtech).

AMO-1 cells = assay: Antiproliferation assay AMO-1 (Assay 7)
Procedure: (§4) Assessment of the Anti-Proliferative Effect of Compounds in Different Cell Lines
(§5) The impact of compounds on the proliferation of different cell lines was assessed using the CellTiter-Glo® Luminescent Cell Viability reagent from Promega (G7573).
(§6) In parallel, cells were plated in a reference (day 0) plate for time zero determination. Cells were incubated in a humidified incubator at 37° C. overnight.
(§7) Rim wells were excluded. The cells were incubated for 72 h hours in a humidified incubator at 37° C. The day 0 plate was measured by adding 30 μL/well of CTG solution (CellTiter-Glo® Luminescent Cell Viability reagent, Promega G7573) to time zero wells in the reference plate followed by a 10 minutes incubation and luminescence reading at 0.1 ms. using the PHERAstar FS microplate reader (BMG Labtech).
(§8) After 72 h incubation, the treated plates were measured in the same way as the day 0 plate mentioned above. The Bella DRC Master Sheet was used to calculate IC50s, with CI=day 0 values and C0=DMSO control values.

SUDHL5 cells [2] = assay: Induction of caspase-3/7 activity in SUDHL5 cells (Assay 4)
Procedure: (§9) Induction of Caspase-3/7 Activity Upon Treatment of Cells with Selected Compounds
(§10) The BH3-domain of MCL-1 sequesters pro-apoptotic proteins, thereby inhibiting apoptosis. In contrast, MCL-1 inhibitors are expected to antagonize this effect leading to an increase in apoptosis, which can be determined by measuring the activity of caspase-3/7.
(§11) The activity of caspase-3/7 was determined in DLBCL (Diffuse large B-cell lymphoma) cell lines (SUDHL5 and SUDHL10) upon treatment with different compounds, using the Caspase-Glo® 3/7 reagent from Promega (G8092).
(§12) As a control, medium without cells was also added to the plate. Cells were incubated in a humidified incubator at 37° C. overnight.
(§13) Rim wells were excluded. The cells were incubated for 3 h hours in a humidified incubator at 37° C. After this incubation, 30 μL of Caspase-Glo® 3/7 reagent (Promega G8092) was added to each well using the Multidrop Combi Reagent Dispenser, followed by 1 h incubation at 37° C. Finally, luminescence was read at 0.1 ms, with a gain of 3000 using the PHERAstar FS microplate reader (BMG Labtech).
(§14) For the evaluation of the results, the background measured with “medium-only” was subtracted from all other values. Then, the values were normalized to DMSO-only treated cells (every value was divided by the mean of the DMSO control).

SUDHL5 cells [3] = assay: Antiproliferation assay SUDHL5 (Assay 7)
Procedure: as §4, §5, §6, §7, §8

HMC-1-8 cells = assay: Antiproliferation assay HMC-1-8 (Assay 7)
Procedure: as §4, §5, §6, §7, §8

SUDHL10 cells [4] = assay: Induction of caspase-3/7 activity in SUDHL10 cells (Assay 4)
Procedure: as §9, §10, §11, §12, §13, §14

SUDHL10 cells [5] = assay: Induction of cytotoxicity in SUDHL10 cells (Assay 6); settings: 5 h, CellTiter-Glo, read-out: Cytotox SUDHL10 IC50 (median)
Procedure: as §1, §2, §3

[6] = 72 h, CellTiter-Glo, read-out: Antiproli HMC-1-8 IC50 median
[7] = read-out: Antiproli AMO-1 IC50 median; 72 h, CellTiter-Glo
[8] = read-out: Caspase SUDHL5 EC50 (median); caspase-3/7 induction, 3 h
[9] = read-out: Antiproli SUDHL5 IC50 (median); 72 h, CellTiter-Glo
[10] = read-out: Antiproli HMC-1-8 IC50 median; 72 h, CellTiter-Glo
[11] = read-out: Caspase SUDHL10 EC50 (median); caspase-3/7 induction, 3 h
[12] = 72 h, CellTiter-Glo; read-out: Antiproli AMO-1 IC50 median
[13] = caspase-3/7 induction, 3 h; read-out: Caspase SUDHL5 EC50 (median)
[14] = 72 h, CellTiter-Glo; read-out: Antiproli SUDHL5 IC50 (median)
[15] = 72 h, CellTiter-Glo; read-out: Antiproli HMC-1-8 IC50 median
[16] = caspase-3/7 induction, 3 h; read-out: Caspase SUDHL10 EC50 (median)

| SMILES | IC50 (SUDHL5 cells [1]) | IC50 (SUDHL10 cells [5]) | IC50 (AMO-1 cells; [12]) | EC50 (SUDHL5 cells [2]; [13]) | IC50 (SUDHL5 cells [3]; [14]) | IC50 (HMC-1-8 cells; [15]) | EC50 (SUDHL10 cells [4]; [16]) | also measured |
| --- | --- | --- | --- | --- | --- | --- | --- | --- |
| CCc1c2c(nn1C)C1CCCCN1CCCCn1c(C(=O)O)c(CCCOc3cccc4ccccc34)c3ccc(Cl)c-2c31 (racemic) [Example 103, (rac)-18-chloro-1-ethyl-2-methyl-15-[3-(1-naphthyloxy)propyl]-2,3b,4,5,6,7,9,10,11,12-decahydropyrazolo[3′,4′:8,9]pyrido[1′,2′:6,7][1,6]diazacycloundecino[10,11,1-hi]indole-14-carboxylic Acid] | – | – | – | – | – | – | – | IC50 (SUDHL5 cells [1]; Homo sapiens, SU-DHL-5, 5 h): 1100 nM; IC50 (AMO-1 cells; Homo sapiens, AMO1, 72 h, 72 h, CellTiter-Glo; read-out: Antiproli AMO-1 IC50 median): 1950 nM; EC50 (SUDHL5 cells [2]; Homo sapiens, SU-DHL-5, 3 h, caspase-3/7 induction, 3 h; read-out: Caspase SUDHL5 EC50 (median)): 1400 nM; IC50 (SUDHL5 cells [3]; Homo sapiens, SU-DHL-5, 72 h, 72 h, CellTiter-Glo; read-out: Antiproli SUDHL5 IC50 (median)): 2000 nM; IC50 (HMC-1-8 cells; [6]): 19800 nM; EC50 (SUDHL10 cells [4]; Homo sapiens, SU-DHL10, 3 h, caspase-3/7 induction, 3 h; read-out: Caspase SUDHL10 EC50 (median)): 2200 nM; IC50 (SUDHL10 cells [5]; Homo sapiens, SU-DHL10, 5 h): 1700 nM |
| CCc1c2c(nn1C)C(CCC1CCOCC1)OCCCCn1c(C(=O)O)c(CCCOc3cccc4cc(F)ccc34)c3ccc(Cl)c-2c31 (single isomer, unassigned; enantiomer 2) [Example 64, (−)-4-chloro-3-ethyl-7-{3-[(6-fluoronaphthalen-1-yl)oxy]propyl}-2-methyl-15-[2-(oxan-4-yl)ethyl]-2,10,11,12,13,15-hexahydropyrazolo[4′,3′:9,10][1,6]oxazacycloundecino[8,7,6-hi]indole-8-carboxylic Acid—N-ethylethanamine Salt (Enantiomer 2)] | 810 nM | 2600 nM | – | – | – | – | – | IC50 (AMO-1 cells; [7]): 1030 nM; EC50 (SUDHL5 cells [2]; [8]): 740 nM; IC50 (SUDHL5 cells [3]; [9]): 1600 nM; IC50 (HMC-1-8 cells; [10]): 7510 nM; EC50 (SUDHL10 cells [4]; [11]): 1300 nM |
| CCc1c2c(nn1C)C(CCN1CCOCC1)N(C)CCCCn1c(C(=O)O)c(CCCOc3cccc4ccccc34)c3ccc(Cl)c-2c31 (racemic) [Example 100, (rac)-4-chloro-3-ethyl-2,14-dimethyl-(15-rac)-[2-(morpholin-4-yl)ethyl]-7-{3-[(naphthalen-1-yl)oxy]propyl}-10,11,12,13,14,15-hexahydro-2H-pyrazolo[3′,4′:8,9][1,6]diazacycloundecino[10,11,1-hi]indole-8-carboxylic] | 340 nM | 320 nM | 224 nM | 210 nM | 260 nM | 3560 nM | 230 nM | – |
| CCc1c2c(nn1C)C(CCN(C)C)OCCCCn1c(C(=O)O)c(CCCOc3cccc4cc(F)ccc34)c3ccc(Cl)c-2c31 (single isomer, unassigned) [Example 82, 4-chloro-15-[2-(dimethylamino)ethyl]-3-ethyl-7-{3-[(6-fluoronaphthalen-1-yl)oxy]propyl}-2-methyl-2,10,11,12,13,15-hexahydropyrazolo[4′,3′:9,10][1,6]oxazacycloundecino[8,7,6-hi]indole-8-carboxylic Acid] | 2600 nM | 3100 nM | 7560 nM | 2700 nM | 4200 nM | > 33000 nM | 4500 nM | – |
| CCc1c2c(nn1C)C(CCN1CC(F)(F)C1)OCCCCn1c(C(=O)O)c(CCCOc3cccc4cc(F)ccc34)c3ccc(Cl)c-2c31 (single isomer, unassigned; (-)) [Example 79, (−)-4-chloro-15-[2-(3,3-difluoroazetidin-1-yl)ethyl]-3-ethyl-7-{3-[(6-fluoronaphthalen-1-yl)oxy]propyl}-2-methyl-2,10,11,12,13,15-hexahydropyrazolo[4′,3′:9,10][1,6]oxazacycloundecino[8,7,6-hi]indole-8-carboxylic Acid—N-ethylethanamine Salt] | 4100 nM | 3800 nM | 3700 nM | 3700 nM | 2200 nM | 23500 nM | 5400 nM | – |
| CCc1c2c(nn1C)C(CCN1CCOCC1)OCC(F)(F)CCn1c(C(=O)O)c(CCCOc3cccc4cc(F)ccc34)c3ccc(Cl)c-2c31 (single isomer, unassigned; (-)) [Example 91, (−)-4-chloro-3-ethyl-12,12-difluoro-7-{3-[(6-fluoronaphthalen-1-yl)oxy]propyl}-2-methyl-15-[2-(morpholin-4-yl)ethyl]-2,10,11,12,13,15-hexahydropyrazolo[4′,3′:9,10][1,6]oxazacycloundecino[8,7,6-hi]indole-8-carboxylic Acid] | 790 nM | – | 729 nM | 660 nM | 1000 nM | 6100 nM | 890 nM | – |
| CCc1c2c(nn1C)C(CCN1CCOCC1)OCC(F)(F)CCn1c(C(=O)O)c(CCCOc3cccc4cc(F)ccc34)c3ccc(Cl)c-2c31 (single isomer, unassigned; (+)) [Example 87, (+)-4-chloro-3-ethyl-12,12-difluoro-7-{3-[(6-fluoronaphthalen-1-yl)oxy]propyl}-2-methyl-15-[2-(morpholin-4-yl)ethyl]-2,10,11,12,13,15-hexahydropyrazolo[4′,3′:9,10][1,6]oxazacycloundecino[8,7,6-hi]indole-8-carboxylic Acid] | 61 nM | – | 63.9 nM | 58 nM | 68 nM | 1500 nM | 84 nM | – |
| CCc1c2c(nn1C)C(CCN1CCN(C)CC1)OCCCCn1c(C(=O)O)c(CCCOc3cccc4cc(F)ccc34)c3ccc(Cl)c-2c31 (single isomer, unassigned; stereoisomer 2) [Example 70, (+)-4-chloro-3-ethyl-7-{3-[(6-fluoronaphthalen-1-yl)oxy]propyl}-2-methyl-15-[2-(4-methylpiperazin-1-yl)ethyl]-2,10,11,12,13,15-hexahydropyrazolo[4′,3′:9,10][1,6]oxazacycloundecino[8,7,6-hi]indole-8-carboxylic Acid—N-ethylethanamine Salt (Stereoisomer 2)] | – | 20000 nM | – | – | – | – | – | IC50 (AMO-1 cells; [7]): 12500 nM; EC50 (SUDHL5 cells [2]; [8]): 13000 nM; IC50 (SUDHL5 cells [3]; [9]): 5000 nM; IC50 (HMC-1-8 cells; [10]): 16800 nM; EC50 (SUDHL10 cells [4]; [11]): 14000 nM |
| CCc1c2c(nn1C)C(CCN1CCOCC1)N(C)CCCCn1c(C(=O)O)c(CCCOc3cccc4ccccc34)c3ccc(Cl)c-2c31 (racemic) [Example 99, (rac)-4-chloro-3-ethyl-2,14-dimethyl-(15-rac)-[2-(morpholin-4-yl)ethyl]-7-{3-[(naphthalen-1-yl)oxy]propyl}-10,11,12,13,14,15-hexahydro-2H-pyrazolo[3′,4′:8,9][1,6]diazacycloundecino[10,11,1-hi]indole-8-carboxylic] | 100 nM | – | 86.3 nM | 76 nM | 71 nM | – | 59 nM | IC50 (HMC-1-8 cells; [6]): 1860 nM |
